Several values for one entry are separate records, joined by “and”; a condition that tells them apart may be missing. Equal entries are not always repeated. Inconclusive results and toxic doses are left out.
Tested on: CD2F1 mice, L1210 leukemia ip, survival T/C
Assay: NCI In Vivo Anticancer Drug Screen. Data for tumor model L1210 Leukemia (intraperitoneal) in CD2F1 (CDF1) mice
Conditions: higher = longer survival
In short: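 Read-out first: treated-group measurement over vehicle-control measurement, expressed as a ratio. Animals bore a transplanted tumor line and were dosed with compound or vehicle.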

[1] = endpoint: mean survival time, dose: 100.0 mg/kg/injection, schedule: Q01DX009 (ip), vehicle: saline with Tween-80
[2] = endpoint: mean survival time, dose: 200.0 mg/kg/injection, schedule: Q01DX009 (ip), vehicle: saline with Tween-80
[3] = endpoint: mean survival time, dose: 400.0 mg/kg/injection, schedule: Q01DX009 (ip), vehicle: saline with Tween-80
[4] = endpoint: mean survival time, dose: 100.0 mg/kg/injection, schedule: Q04DX003 (ip), vehicle: saline with Tween-80
[5] = endpoint: mean survival time, dose: 200.0 mg/kg/injection, schedule: Q04DX003 (ip), vehicle: saline with Tween-80
[6] = endpoint: mean survival time, dose: 400.0 mg/kg/injection, schedule: Q04DX003 (ip), vehicle: saline with Tween-80
[7] = endpoint: mean survival time, dose: 50.0 mg/kg/injection, schedule: Q01DX009 (ip), vehicle: saline with Tween-80
[8] = endpoint: mean survival time, dose: 100.0 mg/kg/injection, schedule: Q01DX001 (ip), vehicle: saline with Tween-80
[9] = endpoint: mean survival time, dose: 200.0 mg/kg/injection, schedule: Q01DX001 (ip), vehicle: saline with Tween-80
[10] = endpoint: mean survival time, dose: 400.0 mg/kg/injection, schedule: Q01DX001 (ip), vehicle: saline with Tween-80

`Cc1cccc(C)c1NC(=S)NNC(=O)NNC(=S)Nc1c(C)cccc1C` was tested, and the T/C [1] was 95 % of control, the T/C [2] was 95 % of control and the T/C [3] was 105 % of control.
With `O=C1N[C@@H]2C(=C[C@H](O)[C@@H](O)[C@H]2O)c2cc3c(c(O)c21)OCO3` the T/C (endpoint: median survival time, dose: 0.62 mg/kg/injection, schedule: Q01DX009 (ip), vehicle: saline with Tween-80) was 110 % of control, the T/C (endpoint: median survival time, dose: 1.25 mg/kg/injection, schedule: Q01DX009 (ip), vehicle: saline with Tween-80) was 108 % of control and the T/C (endpoint: median survival time, dose: 2.5 mg/kg/injection, schedule: Q01DX009 (ip), vehicle: saline with Tween-80) was 113 % of control. For the same compound, the T/C (endpoint: median survival time, dose: 5.0 mg/kg/injection, schedule: Q01DX009 (ip), vehicle: saline with Tween-80) was 115 % of control.
For `CN(N=O)C(N)=O`, the T/C (endpoint: mean survival time, dose: 5.0 mg/kg/injection, schedule: Q03DX003 (ip), vehicle: saline) was 112 % of control, the T/C (endpoint: mean survival time, dose: 5.0 mg/kg/injection, schedule: Q04DX003 (ip), vehicle: saline) was 117 % of control and the T/C (endpoint: mean survival time, dose: 10.0 mg/kg/injection, schedule: Q01DX007 (ip), vehicle: saline) was 166 % of control. The T/C (endpoint: mean survival time, dose: 10.0 mg/kg/injection, schedule: Q01DX009 (ip), vehicle: saline) was 175 % of control, the T/C (endpoint: mean survival time, dose: 20.0 mg/kg/injection, schedule: Q01DX007 (ip), vehicle: saline) was 124 % of control and the T/C (endpoint: mean survival time, dose: 20.0 mg/kg/injection, schedule: Q03DX003 (ip), vehicle: saline) was 156 % of control. For the same compound, the T/C (endpoint: median survival time, dose: 12.0 mg/kg/injection, schedule: Q01DX009 (ip), vehicle: saline + alcohol) was 172 % of control, the T/C (endpoint: median survival time, dose: 14.0 mg/kg/injection, schedule: Q04DX003 (ip), vehicle: saline) was 113 % of control and the T/C (endpoint: median survival time, dose: 14.0 mg/kg/injection, schedule: Q07DX003 (ip), vehicle: saline + alcohol) was 106 % of control. The T/C (endpoint: median survival time, dose: 20.0 mg/kg/injection, schedule: Q07DX003 (ip), vehicle: saline + alcohol) was 118 % of control, the T/C (endpoint: median survival time, dose: 26.0 mg/kg/injection, schedule: Q07DX003 (ip), vehicle: saline + alcohol) was 116 % of control and the T/C (endpoint: median survival time, dose: 33.0 mg/kg/injection, schedule: Q07DX003 (ip), vehicle: saline + alcohol) was 123 % of control. For the same compound, the T/C (endpoint: median survival time, dose: 36.0 mg/kg/injection, schedule: Q04DX003 (ip), vehicle: saline + alcohol) was 151 % of control, the T/C (endpoint: median survival time, dose: 40.0 mg/kg/injection, schedule: Q04DX003 (ip), vehicle: saline) was 160 % of control and the T/C (endpoint: median survival time, dose: 50.0 mg/kg/injection, schedule: Q01DX009 (ip), vehicle: saline + alcohol) was 107 % of control. The T/C (endpoint: median survival time, dose: 60.0 mg/kg/injection, schedule: Q04DX003 (ip), vehicle: saline + alcohol) was 157 % of control, the T/C (endpoint: median survival time, dose: 67.0 mg/kg/injection, schedule: Q04DX003 (ip), vehicle: saline) was 167 % of control and the T/C (endpoint: median survival time, dose: 100.0 mg/kg/injection, schedule: Q04DX003 (ip), vehicle: saline + alcohol) was 97 % of control.
For `CCCCc1ccc(-n2c(C)c(COC(=O)NC)c(COC(=O)NC)c2C)cc1`, the T/C (endpoint: mean survival time, dose: 1.56 mg/kg/injection, schedule: Q01DX009 (ip), vehicle: Klucel (hydroxypropylcellulose) (HPC)) was 113 % of control and 112 % of control, the T/C (endpoint: mean survival time, dose: 3.12 mg/kg/injection, schedule: Q01DX009 (ip), vehicle: Klucel (hydroxypropylcellulose) (HPC)) was 117 % of control and 110 % of control and the T/C (endpoint: mean survival time, dose: 6.25 mg/kg/injection, schedule: Q01DX009 (ip), vehicle: Klucel (hydroxypropylcellulose) (HPC)) was 117 % of control and 110 % of control. For the same compound, the T/C (endpoint: mean survival time, dose: 12.5 mg/kg/injection, schedule: Q01DX009 (ip), vehicle: Klucel (hydroxypropylcellulose) (HPC)) was 124 % of control and 103 % of control, the T/C (endpoint: mean survival time, dose: 25.0 mg/kg/injection, schedule: Q01DX009 (ip), vehicle: Klucel (hydroxypropylcellulose) (HPC)) was 120 % of control and the T/C (endpoint: mean survival time, dose: 50.0 mg/kg/injection, schedule: Q01DX009 (ip), vehicle: Klucel (hydroxypropylcellulose) (HPC)) was 122 % of control and 109 % of control.
`CCN1C(=O)CC(O)C1=O` (stereo not drawn) was tested, and the T/C (endpoint: mean survival time, dose: 100.0 mg/kg/injection, schedule: Q01DX001 (ip), vehicle: saline) was 105 % of control, the T/C (endpoint: mean survival time, dose: 200.0 mg/kg/injection, schedule: Q01DX001 (ip), vehicle: saline) was 103 % of control and the T/C (endpoint: mean survival time, dose: 400.0 mg/kg/injection, schedule: Q01DX001 (ip), vehicle: saline) was 103 % of control.
`CC(C)OC(=O)N(C(=O)OC(C)C)c1ccc(Cl)cc1` was tested, and the T/C (endpoint: mean survival time, dose: 100.0 mg/kg/injection, schedule: Q04DX002 (ip), vehicle: saline with Tween-80) was 97 % of control, the T/C (endpoint: mean survival time, dose: 200.0 mg/kg/injection, schedule: Q04DX002 (ip), vehicle: saline with Tween-80) was 94 % of control and the T/C (endpoint: mean survival time, dose: 400.0 mg/kg/injection, schedule: Q04DX002 (ip), vehicle: saline with Tween-80) was 102 % of control.
`Cc1ccc(Nc2nc(N)nc3nc(N)c(C(N)=O)nc23)cc1C` was tested, and the T/C (endpoint: mean survival time, dose: 12.5 mg/kg/injection, schedule: Q04DX002 (ip), vehicle: Klucel (hydroxypropylcellulose) (HPC)) was 91 % of control, the T/C (endpoint: mean survival time, dose: 25.0 mg/kg/injection, schedule: Q04DX002 (ip), vehicle: Klucel (hydroxypropylcellulose) (HPC)) was 86 % of control and the T/C (endpoint: mean survival time, dose: 50.0 mg/kg/injection, schedule: Q04DX002 (ip), vehicle: Klucel (hydroxypropylcellulose) (HPC)) was 91 % of control.
For `CCCCCCCCCCCCC(=O)OC`, the T/C [1] was 107 % of control, the T/C [2] was 106 % of control and the T/C [3] was 105 % of control.
With `O=c1[nH]c2ccccc2c(=O)c2ccccc12` the T/C [1] was 90 % of control, the T/C [4] was 101 % of control and the T/C [2] was 94 % of control. The T/C [5] was 97 % of control, the T/C [3] was 107 % of control and the T/C [6] was 101 % of control.
For `Cc1ccc(NC(=O)C(Cl)(Cl)Cl)cc1[N+](=O)[O-]`, the T/C [4] was 102 % of control, the T/C [5] was 96 % of control and the T/C [6] was 98 % of control.
For `COc1cc(OC)c(NC(=O)OCC2CCCO2)cc1Cl` (stereo not drawn), the T/C [7] was 90 % of control, the T/C [1] was 97 % of control and the T/C [2] was 94 % of control.
`Cc1cccc(/C=N\OCc2ccccc2)n1` was tested, and the T/C [1] was 98 % of control and the T/C [2] was 113 % of control.
In the case of `C=C(Br)CNCCCCCC`, the T/C (endpoint: mean survival time, dose: 12.5 mg/kg/injection, schedule: Q04DX003 (ip), vehicle: Klucel (hydroxypropylcellulose) (HPC)) was 97 % of control, the T/C (endpoint: mean survival time, dose: 25.0 mg/kg/injection, schedule: Q04DX003 (ip), vehicle: Klucel (hydroxypropylcellulose) (HPC)) was 100 % of control and the T/C (endpoint: mean survival time, dose: 50.0 mg/kg/injection, schedule: Q04DX003 (ip), vehicle: Klucel (hydroxypropylcellulose) (HPC)) was 94 % of control.
With `CN(C)P(=O)(N(C)C)N(C)C` the T/C (endpoint: mean survival time, dose: 100.0 mg/kg/injection, schedule: Q01DX009 (ip), vehicle: saline) was 105 % of control, the T/C (endpoint: mean survival time, dose: 200.0 mg/kg/injection, schedule: Q01DX009 (ip), vehicle: saline) was 104 % of control and the T/C (endpoint: mean survival time, dose: 400.0 mg/kg/injection, schedule: Q01DX009 (ip), vehicle: saline) was 107 % of control.
For `CN(C)C1c2cc(Br)ccc2-c2ccc(Br)cc21`, the T/C (endpoint: mean survival time, dose: 50.0 mg/kg/injection, schedule: Q01DX001 (ip), vehicle: carboxymethylcellulose (CMC)) was 101 % of control, the T/C (endpoint: mean survival time, dose: 100.0 mg/kg/injection, schedule: Q01DX001 (ip), vehicle: carboxymethylcellulose (CMC)) was 101 % of control and the T/C (endpoint: mean survival time, dose: 200.0 mg/kg/injection, schedule: Q01DX001 (ip), vehicle: carboxymethylcellulose (CMC)) was 104 % of control. For the same compound, the T/C (endpoint: mean survival time, dose: 400.0 mg/kg/injection, schedule: Q01DX001 (ip), vehicle: carboxymethylcellulose (CMC)) was 104 % of control.
`CC(C)N(C(C)C)S(=O)(=O)c1ccccc1C(O)(c1ccccc1)c1ccccc1` was tested, and the T/C [1] was 92 % of control, the T/C [4] was 94 % of control and the T/C [5] was 96 % of control. The T/C [6] was 89 % of control.
With `C1=C(CN2CCCCC2)COc2ccccc21` the T/C (endpoint: mean survival time, dose: 37.5 mg/kg/injection, schedule: Q04DX003 (ip), vehicle: saline) was 107 % of control, the T/C (endpoint: mean survival time, dose: 75.0 mg/kg/injection, schedule: Q01DX001 (ip), vehicle: saline) was 98 % of control and the T/C (endpoint: mean survival time, dose: 75.0 mg/kg/injection, schedule: Q04DX003 (ip), vehicle: saline) was 104 % of control. The T/C (endpoint: mean survival time, dose: 150.0 mg/kg/injection, schedule: Q01DX001 (ip), vehicle: saline) was 97 % of control and the T/C (endpoint: mean survival time, dose: 150.0 mg/kg/injection, schedule: Q04DX003 (ip), vehicle: saline) was 104 % of control.
With `CC(=O)Nc1cc([N+](=O)[O-])cc([N+](=O)[O-])c1O` the T/C [8] was 101 % of control and the T/C [9] was 98 % of control.
`O=S(=O)(c1ccc(Br)cc1)c1ccc(Br)cc1` was tested, and the T/C [8] was 112 % of control, the T/C [9] was 102 % of control and the T/C [10] was 97 % of control.
In the case of `COc1ccc(CC2(C#N)c3ccccc3C=CN2C(=O)c2ccccc2)c([N+](=O)[O-])c1OC` (stereo not drawn), the T/C [8] was 95 % of control, the T/C [9] was 97 % of control and the T/C [10] was 95 % of control.
`Cc1ccc(S(=O)(=O)O)c2c([N+](=O)[O-])cccc12` was tested, and the T/C [4] was 100 % of control, the T/C [5] was 104 % of control and the T/C [6] was 96 % of control.
`CCOC(=O)c1cnc(SCc2ccccc2)[nH]c1=O` was tested, and the T/C [4] was 107 % of control, the T/C [5] was 110 % of control and the T/C [6] was 102 % of control.
With `CN1CCC(CN2c3ccccc3Sc3ccccc32)C1` (stereo not drawn) the T/C (endpoint: mean survival time, dose: 12.5 mg/kg/injection, schedule: Q01DX009 (ip), vehicle: saline with Tween-80) was 107 % of control, the T/C (endpoint: mean survival time, dose: 25.0 mg/kg/injection, schedule: Q01DX009 (ip), vehicle: saline with Tween-80) was 102 % of control and the T/C [7] was 123 % of control.

Source: PubChem BioAssay AID256 (DTP/NCI, 2004)
